These are literature values, as cited in paper PMC8533202, “Design of Inhibitors of the Intrinsically Disordered Protein NUPR1: Balance between Drug Affinity and Target Function” (Biomolecules, 2021).

One series has as its system PDAC021T cells. On the set-up: method as in PMID 30920390. The following applies: control, previously obtained; cited from earlier work.
The next series has as its system PDAC087T cells. On the set-up: method as in PMID 30920390. The following applies: control, previously obtained; cited from earlier work.
In series [1] the target is T1, NUPR1 (Homo sapiens, UniProt O60356).
T1 construct: made in house
T1 sequence (O60356 1-82): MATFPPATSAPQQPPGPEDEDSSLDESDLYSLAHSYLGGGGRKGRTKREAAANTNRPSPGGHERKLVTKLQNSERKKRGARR
On the set-up: method as in PMID 30920390. As to conditions: ITC; cited from earlier work. In general terms: Isothermal titration calorimetry measures the heat released or taken up as one component is titrated into another.

Another series concerns PDAC012T cells. On the set-up: method as in PMID 30920390. As to conditions: control, previously obtained; cited from earlier work.
Another series has as its system PDAC001T cells. Details: method as in PMID 30920390. As to conditions: control, previously obtained; cited from earlier work.
Series [2] concerns the target T1, NUPR1. Details: method as in PMID 28054562. As to conditions: molecular scaffold of TFP; cited from earlier work.
The next series deals with PDAC082T cells. On the set-up: method as in PMID 30920390. The following applies: control, previously obtained; cited from earlier work.
Another series has as its system PDAC089T cells. On the set-up: method as in PMID 30920390. As to conditions: control, previously obtained; cited from earlier work.
A further series relates to PDAC088T cells. Details: method as in PMID 30920390. As to conditions: control, previously obtained; cited from earlier work.
For another series, the system named is PDAC081T cells. Details: method as in PMID 30920390. The following applies: control, previously obtained; cited from earlier work.
The next series relates to MiaPaCa-2 cells. On the set-up: method as in PMID 30920390. The following applies: control, previously obtained; cited from earlier work.
The next series concerns PDAC115T cells. Details: method as in PMID 30920390. The following applies: control, previously obtained; cited from earlier work.

As for `CN1CCN(CCCN2c3ccccc3Sc3ccc(C(F)(F)F)cc32)CC1` [TFP, trifluoperazine], the IC50 – broadly, the concentration needed to halve the response being measured – is 23.5 µM in the series on PDAC021T cells; 7.8 µM with PDAC087T cells; 20.4 µM with PDAC012T cells; 12.5 µM with PDAC001T cells; 21.5 µM with PDAC082T cells; 8.09 µM in the series with PDAC089T cells. Further, the IC50 in the series on PDAC088T cells is 15.9 µM; with PDAC081T cells, 2.48 µM; with MiaPaCa-2 cells, 9.28 µM; in the series on PDAC115T cells, 10.1 µM. Further, the Ka on NUPR1 [1] is listed as 1.9 ± 0.2 M^–1 × 10^5. Further, at NUPR1 [1], the “N (stoichiometry)” value is given as 1.0 ± 0.1. Also, the ΔG at NUPR1 [1] was −7.2 ± 0.1 kcal mol^–1. For the same compound, the ΔH on NUPR1 [1] is on record as −1.1 ± 0.4 kcal mol^–1. Further, the “−TΔS” value at NUPR1 [1] is −6.1 ± 0.4 kcal mol^–1. At NUPR1 [2], the calculated binding score result is “–7.0 kcal/mol”.

For the compound `CN(C)CCN1CCN(CCCN2c3ccccc3Sc3ccc(C(F)(F)F)cc32)CC1` [ZZW-115], the IC50 is 2.54 µM in the series on PDAC021T cells; 3.72 µM in the series with PDAC087T cells; 2.44 µM with PDAC012T cells; 1.84 µM with PDAC001T cells; 2.36 µM in the series with PDAC082T cells; 4.72 µM in the series with PDAC089T cells. For the same compound, the IC50 in the series on PDAC088T cells is 5.29 µM; in the series with PDAC081T cells, 0.84 µM; with MiaPaCa-2 cells, 0.32 µM; in the series with PDAC115T cells, 2.21 µM. In addition, the Ka on NUPR1 [1] was 4.7 ± 0.4 M^–1 × 10^5. Moreover, on NUPR1 [1], the “N (stoichiometry)” value is recorded as 0.9 ± 0.1. For the same compound, the ΔG on NUPR1 [1] is given as −7.7 ± 0.1 kcal mol^–1. Moreover, on NUPR1 [1], the ΔH is listed as −0.4 ± 0.3 kcal mol^–1. The “−TΔS” value at NUPR1 [1] was −7.3 ± 0.3 kcal mol^–1.
